Source: article PMC7887336, “Altered functional properties of the codling moth Orco mutagenized in the intracellular loop-3” (Scientific Reports, 2021)
Several values for one entry are separate records, joined by “and”; a condition that tells them apart may be missing. Equal values may be shown once.

Columns and labels:
CpomOrco^Q417H = CpomOrco^Q417H (Cydia pomonella, UniProt H9A5M2, Q417H); experiment: Calcium imaging (Fluo-4) of HEK293A cells transfected with mutagenized CpomOrco^Q417H, VUAA1 stimulation; assay type: cell-based; conditions: for EC50: EC50, HEK293A; for Hill coefficient / maximum response (Hill fit of calcium response amplitudes): HEK293A
Experimental: (§1) HEK293 cells lines (HEK293A/HEK293T) were grown in HEK cell media [Dulbecco's modified Eagle's medium containing 10% fetal bovine serum (MP Biomedicals, Solon, OH, USA), 2.0 mM L-glutamine, and 100 µg/mL penicillin/streptomycin (Invitrogen)] at 37 °C and 5% CO2. To test transient expression of wild type CpomOrco and CpomOrco^Q417H variant for calcium imaging and patch-clamp recording, 35-mm petri dishes containing semi-confluent HEK293A cells were transiently transfected. Cells were transfected with 0.6 µg of pcDNA40-DEST carrying the coding sequence of the CpomOrco variant (depending on the experiments). To report expression for calcium imaging experiments, 0.6 µg of a separate plasmid DNA [pEBFP2-Nuc, a gift from Robert Campbell (Addgene plasmid # 1489352)] carrying the coding sequence for a blue fluorescent protein (EBFP) was co-transfected. To report expression in patch-clamp recordings, 1.0 µg of a separate plasmid DNA (pXOOM, Clontech, Mountain View, CA, USA) carrying the coding sequence for a green fluorescent protein (GFP) was co-transfected. Expressions of fluorescent reporter genes were under the regulation of the same promoter for Cpom-genes (CMV). For specific experiments, co-transfections were conducted combining an additional 1.2 µg of pcDNA40-DEST/CpomOR3 or pcDNA40-DEST/CpomOR6a, as we previously described. Co-transfections with CpomOR3 were performed for dose–response experiments to pear ester: CpomOR3 was co-expressed with CpomOrco variants by the use of HEK293T (Fig. 3b); given the reported functional co-expression data of the CpomOrco + OR3 heteromers by the use of these specific cells. In brief, transfection DNAs were dissolved in 100 µL sterile DMEM, mixed with 3.0 µL Calfectin (SignaGen, Rockville, MD, USA) following the recommended protocol. Transfections were conducted overnight for up to 18 h, HEK cell media was replaced with 2.0 mL fresh media to incubate cells at 37 °C for up to 6–8 h, at which point part of the cell culture was spread in the middle of a 35-mm plate as individual cells or small clusters and rinsed at the sides with 2.0 mL fresh HEK media. After splitting, cells were allowed to recover for at least 1 day prior to calcium imaging.
Activation of HEK293 cells transfected with CpomOrco variants was tested using the same procedures we previously described. Petri dishes were incubated for 1 h at room temperature in 1.0 mL HEK Ca^++ Ringer (mM: 140 NaCl, 5.0 KCl, 2.0 CaCl2, 10 HEPES, pH 7.4) containing the fluorescent calcium indicator Fluo-4AM (Invitrogen) at 5–15 µM prepared with 0.2–0.06% Pluronic F-127 (Invitrogen). To monitor intracellular pH, HEK293A cells were loaded with 10.0 µL BCECF dye (Anaspec, Fremont, CA).
As reported in Cattaneo et al.[14], the buffer was removed after incubation, cells were rinsed with 4.0 mL fresh HEK Ca^++ Ringer and placed on the stage of an inverted microscope (Olympus IX-71, Olympus Corp., Tokyo, Japan) equipped with a cooled CCD camera (ORCA R2, Hamamatsu, Hamamatsu City, Japan). Cells were continuously superfused with Ca^++ Ringer using two gravity fed perfusion contours. The […] contour washing the cells (~ 250 µL/min) was switched rapidly to the stimulus contour using a multi-channel rapid solution changer (RSC-160, Bio-Logic, Claix, France) under the software control of Clampex 9 (Molecular Devices, Sunnyvale, CA, USA).
(§2) Fluorescence imaging was performed using settings optimized for Imaging Workbench 6 software (INDEC BioSystems, Santa Clara, CA, USA)[14]. The non-responsive cells were not included in these analyses. Each cell was assigned a region of interest (ROI) and changes in fluorescence intensity within each ROI were measured and expressed as the fractional change in fluorescence intensity (dF). Stored time series image stacks were analysed off-line using Imaging Workbench 6, Clampfit 10.5 (Molecular Devices) and SigmaPlot 11 (Systat Software Inc., San Jose, CA, USA). Dose–response curves were approximated using Hill equation. […]

CpomOrco = CpomOrco (Cydia pomonella, UniProt H9A5M2); experiment: Whole-cell voltage-clamp recordings of HEK293A cells transfected with CpomOrco, VUAA1; assay type: cell-based; conditions: for EC50: EC50 (K1/2)
Experimental: as §1
Electrophysiological experiments were performed according with the same procedures we previously described. Patch pipettes were fabricated from borosilicate capillary glass (BF150-86–10, Sutter Instrument, CA, USA) using a Flaming-Brown micropipette puller (P-87, Sutter Instrument). Only patches with initial cell-attached seal resistance estimated higher than 1.0 GOhms were used in the experiments. Intracellular (pipette) solution for whole-cell experiments was KCl 140 mM, EGTA 1 mM, Hepes 5 mM, MES 5 mM, pH 8.0 or pH 5.5 (depending on the experiment) adjusted with either NaOH or HCl, standard Na^+ 140 mM. bath solution was usually NaCl 140 mM, EGTA 0.1 mM, Hepes 10 mM, pH 7.4 (adjusted with Tris-base or NaOH). VUAA1 doses (0–1000 µM) were added to the extracellular test solutions.
As described in methods of Cattaneo et al.[14], GFP positive HEK293A cells were visualized using either an Axiovert 100 inverted microscope (Carl Zeiss, Inc., München, Germany) equipped with a mercury vapour compressed-arc lamp (HBO100) coupled to widefield fluorescence filter set (1114–459, Carl Zeiss, Inc.) or Olympus IX-71 inverted microscope described above (Olympus Corp.). The Orco channel-mediated currents were investigated using whole-cell patch-clamp recordings. The currents were measured with a 200B patch-clamp amplifier (Molecular Devices) and a digital interface (Digidata 1320A, Molecular Devices), low pass filtered at 5.0 kHz, sampled at 1–2 kHz. Analysis of the data was carried out using pCLAMP 9.2/10.5 software (Molecular Devices) and SigmaPlot 11 (Systat Software Inc). […]

CpomOrco+OR6a = experiment: VUAA1 responsiveness (Fluo4 +) of HEK293A cells co-transfected with CpomOrco and CpomOR6a; assay type: cell-based, Cydia pomonella; conditions: for Fluo4 + cells, %: of bright field cells
Experimental: (§3) HEK293 cells lines (HEK293A/HEK293T) were grown in HEK cell media [Dulbecco's modified Eagle's medium containing 10% fetal bovine serum (MP Biomedicals, Solon, OH, USA), 2.0 mM L-glutamine, and 100 µg/mL penicillin/streptomycin (Invitrogen)] at 37 °C and 5% CO2. To test transient expression of wild type CpomOrco and CpomOrco^Q417H variant for calcium imaging and patch-clamp recording, 35-mm petri dishes containing semi-confluent HEK293A cells were transiently transfected. Cells were transfected with 0.6 µg of pcDNA40-DEST carrying the coding sequence of the CpomOrco variant (depending on the experiments). To report expression for calcium imaging experiments, 0.6 µg of a separate plasmid DNA [pEBFP2-Nuc, a gift from Robert Campbell (Addgene plasmid # 1489352)] carrying the coding sequence for a blue fluorescent protein (EBFP) was co-transfected. To report expression in patch-clamp recordings, 1.0 µg of a separate plasmid DNA (pXOOM, Clontech, Mountain View, CA, USA) carrying the coding sequence for a green fluorescent protein (GFP) was co-transfected. Expressions of fluorescent reporter genes were under the regulation of the same promoter for Cpom-genes (CMV). For specific experiments, co-transfections were conducted combining an additional 1.2 µg of pcDNA40-DEST/CpomOR3 or pcDNA40-DEST/CpomOR6a, as we previously described. […]
as §2, with “The non-responsive cells were not included in these analyses.” left out, “USA).” for “USA). Dose–response curves were approximated using Hill equation.”

CpomOrco^Q417H+OR6a = experiment: VUAA1 responsiveness (Fluo4 +) of HEK293A cells co-transfected with CpomOrco^Q417H and CpomOR6a; assay type: cell-based, Cydia pomonella; conditions: for Fluo4 + cells, %: of bright field cells
Experimental: as §3
as §2, with “The non-responsive cells were not included in these analyses.” left out, “USA).” for “USA). Dose–response curves were approximated using Hill equation.”

[1] = after 30 min incubation at low pHe = 4.7
[2] = intracellular pH = 5.5, extracellular pH 7.4, -50 mV
[3] = intracellular pH = 8.0, extracellular pH 7.4, -50 mV

Chain of CpomOrco (H9A5M2 entry or part of it): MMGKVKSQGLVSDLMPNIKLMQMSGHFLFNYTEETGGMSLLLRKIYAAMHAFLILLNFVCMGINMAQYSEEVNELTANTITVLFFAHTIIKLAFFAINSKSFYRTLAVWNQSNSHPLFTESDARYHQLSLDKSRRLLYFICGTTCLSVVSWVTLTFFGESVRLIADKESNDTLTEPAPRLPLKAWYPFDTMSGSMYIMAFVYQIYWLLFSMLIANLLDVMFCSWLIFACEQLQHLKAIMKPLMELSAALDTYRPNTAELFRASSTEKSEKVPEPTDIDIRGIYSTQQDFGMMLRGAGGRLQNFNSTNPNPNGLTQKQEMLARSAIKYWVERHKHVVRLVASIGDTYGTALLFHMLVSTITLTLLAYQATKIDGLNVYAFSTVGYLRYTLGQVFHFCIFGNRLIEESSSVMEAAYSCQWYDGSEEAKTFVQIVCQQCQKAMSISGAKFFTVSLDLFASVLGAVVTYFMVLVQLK
Chain of CpomOrco^Q417H (H9A5M2 entry or part of it Q417H): as the sequence (H9A5M2 entry or part of it) above, with Q417H counted along it

CCc1ccc(NC(=O)CSc2nnc(-c3cccnc3)n2CC)cc1 [VUAA1, acetamide,N-(4-ethylphenyl)-2-[[4-ethyl-5-(3-pyridinyl)-4H-1,2,4-triazol-3-yl]thio]-]
EC50 (CpomOrco^Q417H; [1]): ~263 µM | EC50 (CpomOrco^Q417H; control pH conditions (pH 7.4), Hill fit): ~261 µM and ~262 µM | Hill coefficient (CpomOrco^Q417H; [1]): ~ 2.2 ± 0.5 | maximum response (Hill fit of calcium response amplitudes) (CpomOrco^Q417H; after 30 min incubation at low pHe = 4.7, n = 63, constraints applied to fit): ~ 1.8 ± 0.2 ∆F and 1.8 ∆F | Hill coefficient (CpomOrco^Q417H; control pH conditions (pH 7.4)): ~ 2.1 ± 1.9 | maximum response (Hill fit of calcium response amplitudes) (CpomOrco^Q417H; control pH conditions (pH 7.4), N = 94 cells): ~ 3.9 ∆F and ~ 3.9 ± 1.3 ∆F and 3.9 ∆F | EC50 (CpomOrco; [2]): ~561 µM | EC50 (CpomOrco; [3]): ~403 µM | h (Hill equation) (CpomOrco; intracellular pH = 5.5): ~ 5 ± 3.9 | number of cells sensitive to VUAA1 (CpomOrco; intracellular pH = 5.5, GFP positive cells tested): 3 out of 4 | Imax (whole-cell current amplitude, Hill fit) (CpomOrco; [2]): ~ 196 pA and ~ 196 + -32 pA | h (Hill equation) (CpomOrco; intracellular pH = 8.0): ~ 4 ± 0.6 | number of cells sensitive to VUAA1 (CpomOrco; intracellular pH = 8.0, GFP positive cells tested): 8 out of 13 | Imax (whole-cell current amplitude, Hill fit) (CpomOrco; [3]): ~ 784 pA and ~ 784 ± 40 pA | Fluo4 + cells, % (CpomOrco+OR6a; 800 µM VUAA1, Experiment 3, CpomOrco+OR6a): 48,34% | Fluo4 + cells, % (CpomOrco+OR6a; 800 µM VUAA1, Experiment 4, CpomOrco+OR6a): 49,71% | percentage of VUAA-responsive cells (CpomOrco+OR6a; 800 µM VUAA1, HEK293A co-transfected with CpomOrco, CpomOR6a and EBFP, range of two experiments): 48.34–49.71% | Fluo4 + cells, % (CpomOrco^Q417H+OR6a; 800 µM VUAA1, Experiment 3, CpomOrcoQ417H+OR6a): 8,41% | Fluo4 + cells, % (CpomOrco^Q417H+OR6a; 800 µM VUAA1, Experiment 4, CpomOrcoQ417H+OR6a): 10,33% | percentage of VUAA1 sensitive cells (CpomOrco^Q417H+OR6a; 800 µM VUAA1, HEK293A co-transfected with CpomOrco^Q417H, CpomOR6a and EBFP, range of two experiments): 8.41–10.33%
